Results as given in patent US10058534B2, “Benzothiophene derivatives and compositions thereof as selective estrogen receptor degraders” (NOVARTIS AG, priority 2013, dated 2018).
Read-outs that look alike come from different tables or passages of the source.

How the values were obtained:
[1] = molecular target: ER (endogenous, MCF7 cells) (Homo sapiens (Human), UniProt P03372); assay: ER transcription assay (MCF7 cells), ERE-luciferase reporter; assay type: cell-based
Source text: ER Transcription Assay (MCF7 Cells)
The ER transcription assay is a reporter assay that is based on the ability of ER to induce transcription from a luciferase reporter gene containing estrogen response elements (EREs) in the promoter/enhancer region. When the reporter gene is transfected in MCF7 cells (containing endogenous ER), transcription is reflected by the level of luciferase expression.
A day before transfection, cells are split into a T75 flask at a cell density of 300,000 cells/mL (10 mL total) and allowed to attach overnight in a humidified CO2 incubator at 37° C.
Approximately 20 ug DNA is mixed in OptiMEM (Invitrogen) to a total volume of 650 μL. Following incubation, the OptiMEM-DNA mixture is added to the OptiMEM-Lipofectin mix and incubated for 15 minutes at 37° C. The DNA-Lipofectin mixture is then added directly to the T75 flask and the flask is returned to the incubator.
Normally, DMSO (used as a vehicle) is included to achieve a final concentration of 0.1% when added to the cells. Transfected cells are trypsinized, resuspended in DMEM/F12/10% charcoal-stripped serum and added to the 96-well plate at 25,000 cells/well in 90 μL of media. The plate is then returned to the incubator for 24 hours.
After incubation with compounds for 24 hours, Firefly and Renilla luciferase activities are measured to determine ER transcriptional activity. Media is removed from 96-well plates by decanting and blotting on paper towels.
One second total read time after a one second delay.
One second total read time after one second delay. If Firefly luciferase signal is high, Renilla assay must be done an hour after the Firefly assay due to incomplete squelching of Firefly signal.
(§1) The column titled MCF7 IC50 reports the inflection point of the inhibition of transcription in MCF7 cells as described above. Percentage ERα remaining reports the remaining ERα protein measured at 10 μM concentration of the ligand as described above. The column ERα IC50 reports the inflection point of the degradation in response to the ligand concentration.

[2] = molecular target: ERα (Homo sapiens (Human), UniProt P03372); assay: ERα degradation (MCF7 cells), in-cell Western; assay type: cell-based; details: for IC50: inflection point of the degradation in response to ligand concentration; for IC50 / % ERα remaining: MCF7 cells; for % ERα remaining: remaining ERα protein at 10 μM ligand, relative to DMSO control; for ER Percentage remaining: degradation potential, comparison of linker length between phenyl and -C(O)OH
Chain of ERα (P03372 whole entry): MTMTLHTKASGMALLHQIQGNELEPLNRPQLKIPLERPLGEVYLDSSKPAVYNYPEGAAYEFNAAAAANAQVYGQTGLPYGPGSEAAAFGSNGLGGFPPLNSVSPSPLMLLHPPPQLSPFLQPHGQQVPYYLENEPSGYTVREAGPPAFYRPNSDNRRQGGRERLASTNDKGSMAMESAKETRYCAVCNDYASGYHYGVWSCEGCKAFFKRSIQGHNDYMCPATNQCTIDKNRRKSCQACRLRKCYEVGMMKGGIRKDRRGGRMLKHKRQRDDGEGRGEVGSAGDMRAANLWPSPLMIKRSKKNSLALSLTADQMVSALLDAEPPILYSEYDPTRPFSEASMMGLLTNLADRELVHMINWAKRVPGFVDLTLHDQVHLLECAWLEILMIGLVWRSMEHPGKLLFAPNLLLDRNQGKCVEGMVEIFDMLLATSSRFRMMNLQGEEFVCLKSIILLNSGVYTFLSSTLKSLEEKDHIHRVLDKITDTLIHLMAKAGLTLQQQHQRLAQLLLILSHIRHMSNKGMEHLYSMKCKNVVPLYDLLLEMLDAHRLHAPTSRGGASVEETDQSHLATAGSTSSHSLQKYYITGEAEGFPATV
Description: ERα Degradation (MCF7 Cells)
as §1

[3] = inflection point of the inhibition of transcription in MCF7 cells, 0.1 nM estradiol, 24 hours, read-out: MCF7 IC50
[4] = antagonist activity, comparison of linker length between phenyl and -C(O)OH, read-out: SERD IC50 MCF7

Chain of ER (endogenous, MCF7 cells) (P03372 whole entry): as above

SMILES	IC50 [1, 3] [nM]	IC50 [2] [nM]	% ERα remaining [2] [%]	IC50 [1, 4] [nM]	ER Percentage remaining [2] [Percentage]
CC/C(=C\c1ccc(Oc2c(-c3ccccc3C(C)C)sc3cc(O)ccc23)cc1)C(=O)O [Example 113, (E)-2-(4-((6-hydroxy-2-(2-isopropylphenyl)benzo [b]thiophen-3-yl)oxy)benzylidene) butanoic acid]	62	2.2	24	–	–
CC/C(=C\c1ccc(Oc2c(-c3ccc(O)cc3)sc3cc(O)ccc23)cc1)C(=O)O [Example 114, (E)-2-(4-((6-hydroxy-2-(4-hydroxyphenyl)benzo [b]thiophen-3-yl)oxy)benzylidene) butanoic acid]	216	6.4	35	–	–
CC(C)c1ncoc1-c1sc2cc(O)ccc2c1Oc1ccc(/C=C/C(=O)O)cc1 [Example 115, (E)-3-(4-((6-hydroxy-2-(4-isopropyloxazol-5-yl)benzo[b]thiophen-3-yl)oxy)phenyl)acrylic acid]	267	5.3	15	–	–
C[C@@H](O)c1ccccc1-c1sc2cc(O)ccc2c1Oc1ccc(/C=C/C(=O)O)cc1 [Example 116, (R,E)-3-(4-((6-hydroxy-2-(2-(1-hydroxyethyl)phenyl)benzo[b]thiophen-3-yl)oxy)phenyl)acrylic acid]	306	12	24	–	–
CC(C)c1ccccc1-c1sc2cc(O)ccc2c1Oc1ccc(/C=C/C(=O)O)nc1 [Example 117, (E)-3-(5-((6-hydroxy-2-(2-isopropylphenyl)benzo [b]thiophen-3-yl)oxy)pyridin-2-yl)acrylic acid]	54	–	16	–	–
CC(C)c1ccccc1-c1sc2cc(O)ccc2c1Nc1ccc(/C=C/C(=O)O)cc1 [Example 118, (E)-3-(4-((6-hydroxy-2-(2-isopropylphenyl)benzo [b]thiophen-3-yl)amino)phenyl)acrylic acid]	68	2.8	14	–	–
CC(C)c1ccccc1-c1sc2cc(O)ccc2c1N(C)c1ccc(/C=C/C(=O)O)cc1 [Example 119, (E)-3-(4-((6-hydroxy-2-(2-isopropylphenyl)benzo [b]thiophen-3-yl)(methyl)amino)phenyl) acrylic acid]	109	6.2	19	–	–
CC(=O)/C=C/c1ccc(Oc2c(-c3ccc(F)cc3C(F)(F)F)sc3cc(O)ccc23)cc1 [Example 120, (E)-4-(4-((2-(4-fluoro-2-(trifluoromethyl)phenyl)-6-hydroxybenzo[b]thiophen-3-yl)oxy)phenyl)but-3-en-2-one]	5.1	–	70	–	–
CC(=O)/C=C/c1ccc(Oc2c(-c3ccc(C(F)(F)F)cc3)sc3cc(O)ccc23)cc1 [Example 121, (E)-4-(4-((6-hydroxy-2-(4-(trifluoromethyl)phenyl)benzo[b]thiophen-3-yl)oxy)phenyl)but-3-en-2-one]	214	–	56	–	–
CC(F)(F)c1ccccc1-c1sc2cc(O)ccc2c1Oc1ccc(/C=C/C(=O)O)cc1 [Example 122, (E)-3-(4-((2-(2-(1,1-difluoroethyl)phenyl)-6-hydroxybenzo[b]thiophen-3-yl)oxy)phenyl)acrylic acid]	11	0.2	15	–	–
O=C(O)/C=C/c1ccc(Oc2c(-c3ccccc3C3COC3)sc3cc(O)ccc23)cc1 [Example 123, (E)-3-(4-((6-hydroxy-2-(2-(oxetan-3-yl)phenyl)benzo[b]thiophen-3-yl)oxy)phenyl)acrylic acid]	83	1.1	15	–	–
Cc1cccc(C(C)C)c1-c1sc2cc(O)ccc2c1Oc1ccc(/C=C/C(=O)O)cc1 [Example 124, (E)-3-(4-((6-hydroxy-2-(2-isopropyl-6-methylphenyl)benzo[b]thiophen-3-yl)oxy)phenyl)acrylic acid]	114	1.4	10	–	–
CN(C)c1ccccc1-c1sc2cc(O)ccc2c1Oc1ccc(/C=C/C(=O)O)cc1 [Example 125, (E)-3-(4-((2-(2-(dimethylamino)phenyl)-6-hydroxybenzo[b]thiophen-3-yl)oxy)phenyl)acrylic acid]	124	–	11	–	–
O=C(O)/C=C/c1ccc(Oc2c(-c3ccccc3C3CC3)sc3cc(O)ccc23)cc1 [Example 127, (E)-3-(4-((2-(2-cyclopropylphenyl)-6-hydroxybenzo[b]thiophen-3-yl)oxy)phenyl)acrylic acid]	208	4.2	16	–	–
COc1ccc(-c2sc3cc(O)ccc3c2Oc2ccc(/C=C/C(=O)O)cc2)c(C)n1 [Example 129, (E)-3-(4-((6-hydroxy-2-(6-methoxy-2-methylpyridin-3-yl)benzo[b]thiophen-3-yl)oxy)phenyl)acrylic acid]	297	–	22	–	–
Cc1occc1-c1sc2cc(O)ccc2c1Oc1ccc(/C=C/C(=O)O)cc1 [Example 131, (E)-3-(4-((6-hydroxy-2-(2-methylfuran-3-yl)benzo[b]thiophen-3-yl)oxy)phenyl)acrylic acid]	815	–	12	–	–
C#Cc1ccccc1-c1sc2cc(O)ccc2c1Oc1ccc(/C=C/C(=O)O)cc1 [Example 132, (E)-3-(4-((2-(2-ethynylphenyl)-6-hydroxybenzo[b]thiophen-3-yl)oxy)phenyl)acrylic acid]	890	–	16	–	–
Cn1ccc2c(-c3sc4cc(O)ccc4c3Oc3ccc(/C=C/C(=O)O)cc3)cccc21 [Example 133, (E)-3-(4-((6-hydroxy-2-(1-methyl-1H-indol-4-yl)benzo[b]thiophen-3-yl)oxy)phenyl)acrylic acid]	898	–	17	–	–
COc1ccc(-c2sc3cc(O)ccc3c2Oc2ccc(/C=C/C(=O)O)cc2)c(C(C)C)c1 [Example 134, (E)-3-(4-((6-hydroxy-2-(2-isopropyl-4-methoxyphenyl)benzo [b]thiophen-3-yl)oxy)phenyl)acrylic acid]	380	403	12	–	–
CC(C)c1ccccc1-c1sc2cc(OC(=O)C(C)(C)C)ccc2c1Oc1ccc(/C=C/C(=O)O)cc1 [Example 135, (E)-3-(4-((2-(2-isopropylphenyl)-6-(pivaloyloxy)benzo[b]thiophen-3-yl)oxy)phenyl)acrylic acid]	61	–	19	–	–
CCC(=O)Oc1ccc2c(Oc3ccc(/C=C/C(=O)O)cc3)c(-c3ccccc3C(C)C)sc2c1 [Example 136, (E)-3-(4-((2-(2-isopropylphenyl)-6-(propionyloxy)benzo[b]thiophen-3-yl)oxy)phenyl)acrylic acid]	5.1	–	11	–	–
CCOC(=O)/C=C/c1ccc(Oc2c(-c3ccccc3C(C)C)sc3cc(O)ccc23)cc1 [Example 137, (E)-ethyl 3-(4-((6-hydroxy-2-(2-isopropylphenyl)benzo [b]thiophen-3-yl)oxy)phenyl)acrylate]	9	–	15	–	–
CC(C)c1ccccc1-c1sc2cc(O)ccc2c1Oc1ccc(/C=C/C(=O)OCCN2CCOCC2)cc1 [Example 138, (E)-2-morpholinoethyl 3-(4-((6-hydroxy-2-(2-isopropylphenyl)benzo [b]thiophen-3-yl)oxy)phenyl)acrylate]	5.8	–	24	–	–
O=C(O)c1ccc(Oc2c(-c3ccc(O)cc3)sc3cc(O)ccc23)cc1 [reference compound]	–	–	–	10000	57
O=C(O)CCCc1ccc(Oc2c(-c3ccc(O)cc3)sc3cc(O)ccc23)cc1 [reference compound]	–	–	–	10000	55
